# Experimental data published in patent US11066368B2, “Process for the preparation and particle size reduction of pirfenidone” (Laurus Labs Limited, priority 2016, dated 2021).
# Experiment: Particle size distribution after wet milling in colloid mill (IKA MK 2000/05)
# Format: physicochemical
# Details: water
# Description: As used herein, the term “particle size distribution” is expressed in terms of D90, D50 and D10, which corresponds to the diameter of 90 percent by volume of the particles, 50 percent by volume of the particles and 10 percent by volume of the particles are present, respectively.
# The particle size distribution of pirfenidone is measured utilizing: Instrument model: Malvern; Mastersizer 3000; particle refraction index of sample: 1.700; Absorption: 0.01 and Analysis model: general purpose, normal sensitivity, non-spherical particles.
# Pirfenidone (Particle size distribution: D10: 1330 μm; D50: 1950 μm and D90: 2840 μm) and Water (3 vol) were charged into IKA colloid mill at 25° C. to 35° C. and circulated the reaction mass at 25° C. to 35° C. till required particle size was obtained. Particle size distribution of the sample with different time interval was monitored by collecting the sample from reaction mass. After achieving the required particle size, stirred the reaction mixture for 30-60 min at 25° C. to 35° C. Further, the reaction mixture temperature was allowed to cool to 0° C. to 5° C. and stirred for 2-3 hrs at same temperature. Filter the solid and washed with the wet cake with chilled water (0.5 vol), dried the solid in an oven under vacuum at 60° C. for 4-6 hours.
# The following examples were performed using the above described process with different circulation time and different rpm and obtained results are tabulated as below: […]
# [1] = 3000 rpm, circulation time 60 mim
# [2] = 3000 rpm, circulation time 120 mim
# [3] = 3000 rpm, circulation time 30 min
# [4] = 5000 rpm, circulation time 5 min
# [5] = 5000 rpm, circulation time 60 min
# [6] = 6000 rpm, circulation time 45 min
# [7] = 6000 rpm, circulation time 1 hour
# [8] = 6000 rpm, circulation time 2 hours, listed as 1A, 20 kg pirfenidone input
# [9] = 6000 rpm, circulation time 2 hours, listed as 1B, 200 kg pirfenidone input
# [10] = 6000 rpm, circulation time 3 hours, listed as 1A, 20 kg pirfenidone input
# [11] = 6000 rpm, circulation time 3 hours, listed as 1B, 200 kg pirfenidone input
# [12] = 6000 rpm, circulation time 4 hours, listed as 1A, 20 kg pirfenidone input
# [13] = 6000 rpm, circulation time 4 hours, listed as 1B, 200 kg pirfenidone input
# [14] = 6000 rpm, circulation time 5 hours, listed as 1A, 20 kg pirfenidone input
# [15] = 6000 rpm, circulation time 5 hours, listed as 1B, 200 kg pirfenidone input
# [16] = 6000 rpm, circulation time 6 hours, listed as 1A, 20 kg pirfenidone input
# [17] = 6000 rpm, circulation time 6 hours, listed as 1B, 200 kg pirfenidone input
# [18] = 6000 rpm, circulation time 7 hours
# [19] = 6000 rpm, circulation time 8 hours, listed as 1B, 200 kg pirfenidone input
# [20] = 6000 rpm, circulation time 8 hours, listed as 1C, 80 kg pirfenidone input
# [21] = 6000 rpm, circulation time 9 hours
# [22] = 6000 rpm, circulation time 10 hours, listed as 1B, 200 kg pirfenidone input
# [23] = 6000 rpm, circulation time 10 hours, listed as 1C, 80 kg pirfenidone input
# [24] = 6000 rpm, circulation time 12 hours, listed as 1B, 200 kg pirfenidone input
# [25] = 6000 rpm, circulation time 12 hours, listed as 1C, 80 kg pirfenidone input
# [26] = 6000 rpm, circulation time 14 hours
# [27] = 6000 rpm, circulation time 16 hours
# [28] = 6000 rpm, circulation time 19 hours
# [29] = 8000 rpm, circulation time 5 min
smiles,measurement,setting,value
"Cc1ccc(=O)n(-c2ccccc2)c1 [Pirfenidone, 5-methyl-1-phenyl-2-1(H)-pyridone]",PSD D10,[1],12 μm
same,PSD D50,[1],33 μm
same,PSD D90,[1],123 μm
same,PSD D10,[2],13 μm
same,PSD D50,[2],33 μm
same,PSD D90,[2],82 μm
same,PSD D10,[3],28 μm
same,PSD D50,[3],87 μm
same,PSD D90,[3],185 μm
same,PSD D10,[4],11 μm
same,PSD D50,[4],40 μm
same,PSD D90,[4],99 μm
same,PSD D10,[5],11 μm
same,PSD D50,[5],36 μm
same,PSD D90,[5],89 μm
same,PSD D10,[6],41 μm
same,PSD D50,[6],48 μm
same,PSD D90,[6],285 μm
same,PSD D10,[7],30 μm
same,PSD D50,[7],105 μm
same,PSD D90,[7],206 μm
same,PSD D10,[8],28 μm
same,PSD D50,[8],72 μm
same,PSD D90,[8],165 μm
same,PSD D10,[9],34 μm
same,PSD D50,[9],124 μm
same,PSD D90,[9],257 μm
same,PSD D10,[10],26 μm
same,PSD D50,[10],61 μm
same,PSD D90,[10],143 μm
same,PSD D10,[11],34 μm
same,PSD D50,[11],116 μm
same,PSD D90,[11],236 μm
same,PSD D10,[12],23 μm
same,PSD D50,[12],54 μm
same,PSD D90,[12],129 μm
same,PSD D10,[13],32 μm
same,PSD D50,[13],106 μm
same,PSD D90,[13],222 μm
same,PSD D10,[14],22 μm
same,PSD D50,[14],53 μm
same,PSD D90,[14],117 μm
same,PSD D10,[15],33 μm
same,PSD D50,[15],106 μm
same,PSD D90,[15],217 μm
same,PSD D10,[16],21 μm
same,PSD D50,[16],49 μm
same,PSD D90,[16],107 μm
same,PSD D10,[17],29 μm
same,PSD D50,[17],101 μm
same,PSD D90,[17],200 μm
same,PSD D10,[18],31 μm
same,PSD D50,[18],94 μm
same,PSD D90,[18],200 μm
same,PSD D10,[19],28 μm
same,PSD D50,[19],84 μm
same,PSD D90,[19],187 μm
same,PSD D10,[20],21 μm
same,PSD D50,[20],57 μm
same,PSD D90,[20],132 μm
same,PSD D10,[21],28 μm
same,PSD D50,[21],80 μm
same,PSD D90,[21],180 μm
same,PSD D10,[22],27 μm
same,PSD D50,[22],69 μm
same,PSD D90,[22],155 μm
same,PSD D10,[23],22 μm
same,PSD D50,[23],55 μm
same,PSD D90,[23],122 μm
same,PSD D10,[24],25 μm
same,PSD D50,[24],61 μm
same,PSD D90,[24],150 μm
same,PSD D10,[25],22 μm
same,PSD D50,[25],54 μm
same,PSD D90,[25],121 μm
same,PSD D10,[26],21 μm
same,PSD D50,[26],47 μm
same,PSD D90,[26],98 μm
same,PSD D10,[27],21 μm
same,PSD D50,[27],47 μm
same,PSD D90,[27],96 μm
same,PSD D10,[28],22 μm
same,PSD D50,[28],46 μm
same,PSD D90,[28],93 μm
same,PSD D10,[29],9 μm
same,PSD D50,[29],35 μm
same,PSD D90,[29],85 μm
